# Measurements published in PMC7343746, “(2S, 4R)-4-[^18F]Fluoroglutamine for In vivo PET Imaging of Glioma Xenografts in Mice: an Evaluation of Multiple Pharmacokinetic Models” (Molecular Imaging and Biology, 2020).
# Assays:
# rat BT4C glioma cells = test: Logan plot (reversible uptake model), subcutaneous model; format: in vivo, Foxn1^nu/nu mouse; conditions: for Logan IC (PC) y intercept / Logan DV (PC) distribution volume: PC input; for AB distribution volume: arterial blood input; for PC distribution volume: plasma-corrected input; for Logan DV (AB) distribution volume / Logan Ic (AB) y intercept: AB input
# Description: (§1) Image analysis was performed using CARIMAS software published and freely distributed by the Turku PET Center (http://turkupetcentre.fi/carimas/). CT scans were used as rough anatomical reference while tumor regions of interest (ROI) were hand-drawn based upon observed spikes of radioactivity in the PET images at locations correlating with recorded tumor grafts. Control muscle ROIs were drawn on the side opposite to the tumor in the leg flank muscle (based on CT) while the blood ROI was drawn based upon heart anatomical location and observed PET image radioactivity spike during the initial 20 s of imaging in the left ventricle. Standardized uptake values (SUV) were calculated with respect to ROI volume, mean and max tumor radioactivity, total injected radioactivity dose (corrected for tail, cannula, and syringe residual radioactivity), and animal weight, and were additionally presented as tumor-to-background ratio (TBR, tumor-to-healthy brain region for intracranial gliomas and tumor-to-muscle for subcutaneous gliomas) as defined by recent glioma research literature standards. Mean and maximum TBR values were reported as ROI radioactivity per volume divided by mean background radioactivity per volume. The blood radioactivity SUV and gender-specific metabolite-corrected blood radioactivity SUV were then applied to multiple pharmacokinetic models to characterize the flux of the tracer (further described in the “Modeling” section).
# (§2) Using the heart’s left ventricle ROI from the PET data as an uncorrected radioactivity level input and the bioavailable parent-tracer fraction (results: Eqs. 3 and 4 applied to the uncorrected input) as the corrected input, multiple models were investigated to characterize the tissue uptake dynamics. Two-compartment modeling and Logan, Patlak, and Yokoi plots were used to separately model the pharmacokinetics for the gliomas (both subcutaneous and orthotopic loci) and their respective control tissues (healthy muscle and healthy brain, respectively). Where indicated, means plus/minus standard deviations are reported. Difference in parameters for uncorrected versus correct and target tissue versus their respective control regions were tested with students’ paired t tests with P values lower than 0.05 being considered significant.
# [1] = test system: patient-derived BT3 glioma cells; test: Yokoi plot, orthotopic model; format: in vivo, BALB/cOlaHsd-Foxn1^nu mouse; conditions: for Yokoi K1 (AB) plasma to tissue transport rate / Yokoi K1/k2 (AB) binding potential / Yokoi k2 (AB) tissue to plasma transport rate: AB input; for Yokoi K1 (PC) plasma to tissue transport rate / Yokoi K1/k2 (PC) binding potential / Yokoi k2 (PC) tissue to plasma transport rate: PC input
# Description: as §1, §2
smiles,measurement,setting,value
"NC(=O)[C@H]([18F])C[C@H](N)C(=O)O [[^18F]FGln, (2S, 4R)-4-[^18F]fluoroglutamine]",Logan IC (PC) y intercept,rat BT4C glioma cells; Bone (femoral condyle) average (n = 6),-142.79 ± 84.46
same,AB distribution volume,rat BT4C glioma cells; Flank muscle (n = 6),0.77 ± 0.13
same,PC distribution volume,rat BT4C glioma cells; Flank muscle (n = 6),1.38 ± 0.23
same,Logan DV (AB) distribution volume,rat BT4C glioma cells; Flank muscle average (n = 6),0.77 ± 0.13
same,Logan Ic (AB) y intercept,rat BT4C glioma cells; Flank muscle average (n = 6),-15.28 ± 5.34
same,Logan DV (PC) distribution volume,rat BT4C glioma cells; Flank muscle average (n = 6),1.38 ± 0.23
same,Logan IC (PC) y intercept,rat BT4C glioma cells; Flank muscle average (n = 6),-27.58 ± 7.76
same,AB distribution volume,rat BT4C glioma cells; Flank tumor (n = 6),1.13 ± 0.09
same,PC distribution volume,rat BT4C glioma cells; Flank tumor (n = 6),1.96 ± 0.15
same,Logan DV (AB) distribution volume,rat BT4C glioma cells; Flank tumor average (n = 6),1.13 ± 0.09
same,Logan Ic (AB) y intercept,rat BT4C glioma cells; Flank tumor average (n = 6),-10.31 ± 3.60
same,Logan DV (PC) distribution volume,rat BT4C glioma cells; Flank tumor average (n = 6),1.96 ± 0.15
same,Logan IC (PC) y intercept,rat BT4C glioma cells; Flank tumor average (n = 6),-19.79 ± 4.89
same,AB distribution volume,rat BT4C glioma cells; Neck tumor (n = 6),1.21 ± 0.08
same,PC distribution volume,rat BT4C glioma cells; Neck tumor (n = 6),2.08 ± 0.13
same,Logan DV (AB) distribution volume,rat BT4C glioma cells; Neck tumor average (n = 6),1.21 ± 0.08
same,Logan Ic (AB) y intercept,rat BT4C glioma cells; Neck tumor average (n = 6),-7.63 ± 2.79
same,Logan DV (PC) distribution volume,rat BT4C glioma cells; Neck tumor average (n = 6),2.08 ± 0.13
same,Logan IC (PC) y intercept,rat BT4C glioma cells; Neck tumor average (n = 6),-16.47 ± 3.85
same,Yokoi K1 (AB) plasma to tissue transport rate,[1]; Subject A brain (control),0.018 mL min-1 mL-1
same,Yokoi K1/k2 (AB) binding potential,[1]; Subject A brain (control),0.34 mL mL-1
same,Yokoi k2 (AB) tissue to plasma transport rate,[1]; Subject A brain (control),0.054 min⁻¹
same,Yokoi K1 (PC) plasma to tissue transport rate,[1]; Subject A brain (control),0.019 mL min-1 mL-1
same,Yokoi K1/k2 (PC) binding potential,[1]; Subject A brain (control),0.68 mL mL-1
same,Yokoi k2 (PC) tissue to plasma transport rate,[1]; Subject A brain (control),0.028 min⁻¹
same,Yokoi K1 (AB) plasma to tissue transport rate,[1]; Subject A glioma max.,0.120 mL min-1 mL-1
same,Yokoi K1/k2 (AB) binding potential,[1]; Subject A glioma max.,1.59 mL mL-1
same,Yokoi k2 (AB) tissue to plasma transport rate,[1]; Subject A glioma max.,0.075 min⁻¹
same,Yokoi K1 (PC) plasma to tissue transport rate,[1]; Subject A glioma max.,0.121 mL min-1 mL-1
same,Yokoi K1/k2 (PC) binding potential,[1]; Subject A glioma max.,2.95 mL mL-1
same,Yokoi k2 (PC) tissue to plasma transport rate,[1]; Subject A glioma max.,0.041 min⁻¹
same,Yokoi K1 (AB) plasma to tissue transport rate,[1]; Subject A o.t. glioma,0.078 mL min-1 mL-1
same,Yokoi K1/k2 (AB) binding potential,[1]; Subject A o.t. glioma,1.50 mL mL-1
same,Yokoi k2 (AB) tissue to plasma transport rate,[1]; Subject A o.t. glioma,0.052 min⁻¹
same,Yokoi K1 (PC) plasma to tissue transport rate,[1]; Subject A o.t. glioma,0.083 mL min-1 mL-1
same,Yokoi K1/k2 (PC) binding potential,[1]; Subject A o.t. glioma,2.96 mL mL-1
same,Yokoi k2 (PC) tissue to plasma transport rate,[1]; Subject A o.t. glioma,0.028 min⁻¹
same,Yokoi K1 (AB) plasma to tissue transport rate,[1]; Subject B brain (control),0.015 mL min-1 mL-1
same,Yokoi K1/k2 (AB) binding potential,[1]; Subject B brain (control),0.33 mL mL-1
same,Yokoi k2 (AB) tissue to plasma transport rate,[1]; Subject B brain (control),0.045 min⁻¹
same,Yokoi K1 (PC) plasma to tissue transport rate,[1]; Subject B brain (control),0.015 mL min-1 mL-1
same,Yokoi K1/k2 (PC) binding potential,[1]; Subject B brain (control),0.69 mL mL-1
same,Yokoi k2 (PC) tissue to plasma transport rate,[1]; Subject B brain (control),0.022 min⁻¹
same,Yokoi K1 (AB) plasma to tissue transport rate,[1]; Subject B glioma max.,0.046 mL min-1 mL-1
same,Yokoi K1/k2 (AB) binding potential,[1]; Subject B glioma max.,1.29 mL mL-1
same,Yokoi k2 (AB) tissue to plasma transport rate,[1]; Subject B glioma max.,0.036 min⁻¹
same,Yokoi K1 (PC) plasma to tissue transport rate,[1]; Subject B glioma max.,0.049 mL min-1 mL-1
same,Yokoi K1/k2 (PC) binding potential,[1]; Subject B glioma max.,2.79 mL mL-1
same,Yokoi k2 (PC) tissue to plasma transport rate,[1]; Subject B glioma max.,0.017 min⁻¹
same,Yokoi K1 (AB) plasma to tissue transport rate,[1]; Subject B o.t. glioma,0.045 mL min-1 mL-1
same,Yokoi K1/k2 (AB) binding potential,[1]; Subject B o.t. glioma,0.99 mL mL-1
same,Yokoi k2 (AB) tissue to plasma transport rate,[1]; Subject B o.t. glioma,0.046 min⁻¹
same,Yokoi K1 (PC) plasma to tissue transport rate,[1]; Subject B o.t. glioma,0.047 mL min-1 mL-1
same,Yokoi K1/k2 (PC) binding potential,[1]; Subject B o.t. glioma,1.96 mL mL-1
same,Yokoi k2 (PC) tissue to plasma transport rate,[1]; Subject B o.t. glioma,0.024 min⁻¹
